Active and inactive are the calls of the source. The rule behind the calls is not given here.
Experiments:
[1] = tested on: Escherichia coli; test: Inhibition of Escherichia coli ArnA upto 100 uM
[2] = tested on: Escherichia coli; test: Inhibition of Escherichia coli ArnB upto 100 uM
[3] = molecular target: Undecaprenyl phosphate-alpha-4-amino-4-deoxy-L-arabinose arabinosyl transferase (Salmonella typhimurium (strain LT2 / SGSC1412 / ATCC 700720)) (UniProt O52327); test: Inhibition of PmrK/ArnT in Salmonella Typhimurium JSG435 membranes assessed as effect on transfer of aminoarabinose tp lipid A; conditions: Salmonella enterica subsp. enterica serovar Typhimurium

SMILES	Activity [1]	Activity [2]	Activity [3]
CC(=O)OC1OC[C@H](N=[N+]=[N-])[C@H](OC(C)=O)[C@H]1OC(C)=O (stereo partly drawn)	Active	Active	Active
COP(=O)(N[C@H]1CO[C@H](OP(=O)(O)O)[C@H](OC(C)=O)[C@H]1OC(C)=O)OC	Active	Active	–
COP(=O)(N[C@H]1CO[C@H](OP(=O)(OCc2ccccc2)OCc2ccccc2)[C@H](OC(C)=O)[C@H]1OC(C)=O)OC	Active	Active	–

More lines, now with the values ahead:

Activity [1]	Activity [2]	Activity [3]	SMILES
Active	Active	–	CCCCCCCCN.CCOP(=O)(Cc1ccccc1)N[C@H]1CO[C@H](OP(=O)(O)OP(=O)(O)OC[C@H]2O[C@@H](n3ccc(=O)[nH]c3=O)[C@H](O)[C@@H]2O)[C@H](OC(C)=O)[C@H]1OC(C)=O (stereo partly drawn)
Active	Active	–	CC(=O)O[C@@H]1[C@@H](OC(C)=O)[C@@H](OP(=O)(O)O)OC[C@@H]1N=[N+]=[N-]
Active	Active	–	CC(=O)O[C@@H]1[C@@H](OC(C)=O)[C@@H](OP(=O)(O)OP(=O)(O)OC[C@H]2O[C@@H](n3ccc(=O)[nH]c3=O)[C@H](O)[C@@H]2O)OC[C@@H]1N=[N+]=[N-].CCCCCCCCCN
